Results on 14 compounds are retold here after PubChem BioAssay AID212 (DTP/NCI, 2004).

The assay concerns BDF1 mice, colon carcinoma 38 sc, T/C %. Nature of the assay: NCI In Vivo Anticancer Drug Screen. Data for tumor model Colon Carcinoma 38 (subcutaneous) in B6D2F1 (BDF1) mice. As to conditions: endpoint: median tumor weight (est.), schedule: Q07DX002 (ip), higher = larger tumour. In outline:
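Compound antitumor activity was assessed in mice carrying transplantable tumors. Survival or tumor size was recorded, and each value is the treated-group measurement divided by that of the vehicle-treated control group.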

Where [1] appears, read: dose: 100.0 mg/kg/injection, vehicle: saline.
Setting [2] is: dose: 200.0 mg/kg/injection, vehicle: saline.
Where [3] appears, read: dose: 25.0 mg/kg/injection, vehicle: water.
Where [4] appears, read: dose: 12.5 mg/kg/injection, vehicle: saline with Tween-80.
[5] abbreviates: dose: 25.0 mg/kg/injection, vehicle: saline with Tween-80.
Where [6] appears, read: dose: 100.0 mg/kg/injection, vehicle: saline with Tween-80.
[7] abbreviates: dose: 200.0 mg/kg/injection, vehicle: saline with Tween-80.
The mark [8] stands for this setting: dose: 400.0 mg/kg/injection, vehicle: saline with Tween-80.

SMILES strings stand for the structures. Where “and” joins values, the source holds several entries; their conditions need not be identical. Equal values may be shown once. Inconclusive results are not listed.

`N#CN=[N+]([O-])c1ccc(C(=O)O)cc1`: the T/C was 117 % of control and 123 % of control (dose: 3.75 mg/kg/injection, vehicle: Klucel (hydroxypropylcellulose) (HPC)); 124 % of control (dose: 7.5 mg/kg/injection, vehicle: Klucel (hydroxypropylcellulose) (HPC)); 87 % of control (dose: 15.0 mg/kg/injection, vehicle: Klucel (hydroxypropylcellulose) (HPC)); 159 % of control (dose: 60.0 mg/kg/injection, vehicle: Klucel (hydroxypropylcellulose) (HPC)).
Take `O=C(O)CCc1cccc2c(=O)cc(-c3ccccc3)oc12`: the T/C under setting [1] is 60 % of control; the T/C under setting [2] was 100 % of control; the T/C (dose: 400.0 mg/kg/injection, vehicle: saline) is 120 % of control.
Consider `O=C(C#Cc1ccccc1)c1ccccc1`, for which the T/C reads like this: (dose: 3.12 mg/kg/injection, vehicle: Klucel (hydroxypropylcellulose) (HPC)) 73 % of control; (dose: 3.12 mg/kg/injection, vehicle: water) 106 % of control; (dose: 6.25 mg/kg/injection, vehicle: water) 77 % of control; (dose: 12.5 mg/kg/injection, vehicle: Klucel (hydroxypropylcellulose) (HPC)) 83 % of control; (dose: 12.5 mg/kg/injection, vehicle: water) 110 % of control; (dose: 25.0 mg/kg/injection, vehicle: Klucel (hydroxypropylcellulose) (HPC)) 101 % of control. The T/C was 117 % of control under setting [3] and 54 % of control (dose: 50.0 mg/kg/injection, vehicle: water).
Regarding `ClC1=C(Cl)C(Cl)=C(Cl)C1=Cc1ccccc1`, the T/C was 119 % of control (dose: 0.78 mg/kg/injection, vehicle: saline with Tween-80); 95 % of control (dose: 1.56 mg/kg/injection, vehicle: saline with Tween-80); 114 % of control (dose: 6.25 mg/kg/injection, vehicle: saline with Tween-80); 114 % of control under setting [4]; 58 % of control under setting [5].
Take `O=C1c2ccccc2C(=O)c2c3c(cc(NCCNCCO)c21)N(CCO)CCN3`: the T/C was 96 % of control (dose: 100.0 mg/kg/injection, vehicle: DMSO); 105 % of control (dose: 200.0 mg/kg/injection, vehicle: DMSO); 117 % of control (dose: 400.0 mg/kg/injection, vehicle: DMSO).
On to `CCCCC(=O)OCC(=O)[C@]1(O)Cc2c(O)c3c(c(O)c2[C@@H](OC2CC(NC(=O)C(F)(F)F)C(O)C(C)O2)C1)C(=O)c1c(OC)cccc1C3=O` (stereo partly drawn), for which the T/C is 168 % of control under setting [3]; 89 % of control (dose: 100.0 mg/kg/injection, vehicle: water); 106 % of control (dose: 200.0 mg/kg/injection, vehicle: water); 71 % of control (dose: 400.0 mg/kg/injection, vehicle: water); 45 % of control (dose: 800.0 mg/kg/injection, vehicle: water).
In the case of `Nc1nc(/C=C(/O)c2ccccc2)c2ncn(C3OC(CO)C(O)C3O)c2n1` (stereo not drawn), the T/C runs as follows: (dose: 12.5 mg/kg/injection, vehicle: distilled water + Tween-80) 100 % of control; (dose: 12.5 mg/kg/injection, vehicle: saline) 120 % of control; (dose: 25.0 mg/kg/injection, vehicle: distilled water + Tween-80) 85 % of control; (dose: 25.0 mg/kg/injection, vehicle: saline) 87 % of control; (dose: 50.0 mg/kg/injection, vehicle: saline) 89 % of control; (dose: 100.0 mg/kg/injection, vehicle: distilled water + Tween-80) 110 % of control. For the same compound, the T/C is, setting by setting: under setting [1], 99 % of control; under setting [2], 120 % of control.
`C[C@]12CC[C@@H]3c4ccc(OC(=O)Cc5ccc(N(CCCl)CCCl)cc5)cc4CC[C@H]3[C@@H]1CC[C@@H]2OC(=O)Cc1ccc(N(CCCl)CCCl)cc1`: the T/C runs as follows: (dose: 50.0 mg/kg/injection, vehicle: saline with Tween-80) 185 % of control; under setting [6], 176 % of control; under setting [7], 173 % of control and 201 % of control; under setting [8], 256 % of control; (dose: 800.0 mg/kg/injection, vehicle: saline with Tween-80) 195 % of control.
Take `COc1c(O)c2c(c3cc(C(=O)N4CCc5c4c(O)c(OC)c4[nH]c(C(=O)N6CC7CC78C6=CC(=O)c6[nH]cc(C)c68)cc54)[nH]c13)CCN2C(N)=O` (stereo not drawn): the T/C is 122 % of control (dose: 6.25 micrograms/kg/injection, vehicle: DMSO); 109 % of control (dose: 25.0 micrograms/kg/injection, vehicle: DMSO); 89 % of control (dose: 50.0 micrograms/kg/injection, vehicle: DMSO); 89 % of control (dose: 67.0 micrograms/kg/injection, vehicle: other); 37 % of control (dose: 100.0 micrograms/kg/injection, vehicle: other).
Consider `CCOC(=O)Nc1cc2c(c(N)n1)N=C(c1ccccc1)CN2`, for which the T/C is 66 % of control (dose: 2.5 mg/kg/injection, vehicle: saline with Tween-80); 73 % of control (dose: 5.0 mg/kg/injection, vehicle: saline with Tween-80); 97 % of control (dose: 10.0 mg/kg/injection, vehicle: saline with Tween-80).
For the compound `Cc1cc(NCCN(C(C)C)C(C)C)nc(/N=C(\N)Nc2ccc(Cl)c(C(F)(F)F)c2)n1`, the T/C (dose: 2.5 mg/kg/injection, vehicle: Klucel (hydroxypropylcellulose) (HPC)) was 89 % of control; the T/C (dose: 10.0 mg/kg/injection, vehicle: Klucel (hydroxypropylcellulose) (HPC)) is 82 % of control; the T/C (dose: 20.0 mg/kg/injection, vehicle: Klucel (hydroxypropylcellulose) (HPC)) was 95 % of control; the T/C (dose: 40.0 mg/kg/injection, vehicle: Klucel (hydroxypropylcellulose) (HPC)) was 67 % of control.
Take `CCN(CC)C(C)(C)C(=O)/C=C/c1ccccc1`: the T/C is, setting by setting: (dose: 31.25 mg/kg/injection, vehicle: saline with Tween-80) 68 % of control; (dose: 62.5 mg/kg/injection, vehicle: saline with Tween-80) 39 % of control; (dose: 125.0 mg/kg/injection, vehicle: saline with Tween-80) 78 % of control; (dose: 250.0 mg/kg/injection, vehicle: saline with Tween-80) 34 % of control.
With `Clc1cc(Cl)c(C[N+]23CN4CN(CN(C4)C2)C3)cc1Cl`, the T/C is, setting by setting: under setting [4], 80 % of control and 90 % of control; under setting [5], 118 % of control.
`O=C1OCC2C(=O)OCC12` (stereo not drawn): the T/C by setting is: under setting [5], 103 % of control; under setting [6], 46 % of control; under setting [7], 120 % of control; under setting [8], 69 % of control.
